We go through one compound from patent US8906925B2, “Pyrido[4,3-B]indoles containing rigid moieties” (Medivation Technologies, Inc., priority 2008, dated 2014).

One experiment has as its system mice (e.g., C57Bl/6J). The experiment in a line: Amphetamine-induced hyperactivity, open field test. It counts as in vivo, mouse. The conditions noted are these: amphetamine (4 mg/kg), 90 min. test. The method, then:
Male mice (various strains e.g., C57Bl/6J) from appropriate supplier (for example Jackson Laboratories, Bar Harbor, Me.) were used. Mice typically were received at 6-weeks of age. Mice were acclimated to the colony room for at least two weeks prior to testing. During the period of acclimation, mice were examined on a regular basis, handled, and weighed to assure adequate health and suitability and maintained on a 12 h/12 h light/dark cycle. The room temperature was maintained between 20 and 23° C. with a relative humidity maintained between 30% and 70%. Food and water were provided ad libitum for the duration of the study. In each test, animals were randomly assigned between treatment groups.
The open field test (OF) was used to assess motor activity. […] Horizontal activity (distance traveled) and vertical activity (rearing) were measured from consecutive beam breaks.
On the day of testing, animals were brought to the experimental room for at least 1 h acclimation prior to start of treatment. […] The time of administration of test compound to each animal was recorded. Baseline activity was recorded for […]. following which mice received amphetamine (4 mg/kg) or water and were placed back in the OF chambers for a 60-min. session. […]
Data were analyzed by analysis of variance (ANOVA) followed by post-hoc comparisons with Fisher Tests when appropriate. […]

For experiment [1], the system named is rat mixed cortical cultures. In words: Neurite outgrowth in rat mixed cortical cultures. It counts as cell-based. The conditions noted are these: 50 nM, 48 h, vs vehicle. As for the experimental part:
Cortical mixed cultures are prepared from E18 Wistar rat embryos. The cortices are dissected out and the tissue was cut to small pieces. The cells are separated by 15-min. incubation with DNase and papain. The cells are collected by centrifugation (1500 rpm, 5 min.). The tissue is triturated with a pipette and the cells are plated using the micro-islet protocol (20 000 cells in […] medium) on poly-L-lysine coated 48 wells, in MEM supplemented with 2 mM glutamine, […] gentamicin, 10% heat-inactivated fetal bovine serum (FBS-HI) and 10% heat-inactivated horse serum (HS-HI). After the cells had attached to the well, 250 μl medium is added to the wells. […] BDNF levels in the conditioned media are determined with a BDNF ELISA using the manufacturers (Promega, BDNF Emax® ImmunoAssay System, catalog number: G7610) instructions.
The cultures are fixed with 4% formaldehyde in 0.01 M PBS for 30 min. and washed once with PBS. […] The immunopositive cells are visualized by a fluorescence microscope equipped with appropriate filter set, and documented by a high resolution image capturing. The number of cells per field (4 field per well) are counted, and the neurite outgrowth was quantified using Image Pro Plus software. […]
Compounds of the invention were evaluated on their effect on neurite outgrowth in rat mixed neuronal cultures. […]

As for `C/C(=C\n1c2c(c3cc(Cl)ccc31)CN(C)CC2)c1ccc(F)cc1` [Compound 83, (E)-8-chloro-5-(2-(4-fluorophenyl)prop-1-enyl)-2,3,4,5-tetrahydro-2-methyl-1H-pyrido[4,3-b]indole], in the experiment on mice (e.g., C57Bl/6J), the “Total Distance Traveled (center+periphery), ANOVA” value is listed as “significant treatment effect” and the “Total Rearing (center+periphery), ANOVA” value was “significant treatment effect”. In experiment [1], the “Mean Process+Branch Number (number of branched processes)” value is “significantly increased”.
